Measurements taken from patent publication US8207136B2, “Nucleoside compounds and methods of use thereof” (The Board of Trustees of the University of Illinois, priority 2005, dated 2012).

Assays:
[1] = tested on: SV40-transformed MRC-5 human fetal lung fibroblasts; assay: Apoptosis assays in SV40-transformed MRC-5 fibroblasts; format: cell-based; settings: 24 hours
Protocol: Immunoblotting was performed as described with antibodies specific for p53 (sc-126 HRP; Santa Cruz), hdm2 (sc-965; Santa Cruz), p21 (556431; BD Pharmingen), Sp1 (sc-59; Santa Cruz), survivin (sc-10811; Santa Cruz), phospho RNA polymerase II (4735; Cell Signaling), total RNA polymerase II (8WG16; a gift from Dr. Schlegel, University of Illinois at Chicago), α-tubulin (T9026; Sigma), cleaved caspase-3 (9664; Cell Signaling), caspase-9 (9502; Cell Signaling) and β-actin (A5441; Sigma) antibodies.
Apoptosis was detected either by DAPI (4′,6-diamidino-2-phenylindole) staining or by Flow Cytometry after PI (Propidium Iodide) staining. For DAPI staining, all treatments (DMSO or ARC) were done in triplicates in 6-well plates and cells were stained with DAPI and visualized by fluorescent microscopy. Four random fields for each sample were photographed and at least 500 cells per field were counted to estimate apoptosis. The data is represented as mean±Standard deviation (sd).
The ability of ARC to induce apoptosis in wild type and SV40-transformed MRC-5 human fetal lung fibroblasts was evaluated. Twenty-four hours after treatment with ARC, transformed fibroblasts underwent robust apoptosis (around 50% and 70%, respectively, with 5 and 10 μM of ARC) (FIGS. 4A and B). […] The transformed cell types may be more dependent on the survivin levels for their survival than their wild type counterparts and thus the reduction in these levels could be lethal to these cells.

[2] = tested on: leukemia cell lines CEM, HL-60, NB4 and U937; assay: TMRE staining and flow cytometry of leukemia cells; format: cell-based; settings: 5 μM, 24 hours
Protocol: FIG. 7. ARC induces mitochondrial injury in leukemia cells. Different leukemia cells were either treated with DMSO (gray) or 5 μM ARC (white) for 24 hours, stained with TMRE (tetramethyl rhodamine ethyl ester) and subjected to flow cytometry. CEM cells are shown in panel (A), HL-60 in panel (B), NB4 in panel (C) and U937 in panel (D). The shift in the peak from right (DMSO; gray) to left (ARC-treated; white) is due to the lower intake of the dye caused by the loss in mitochondrial potential.
In order to further probe the mechanism of ARC-induced apoptosis, whether or not ARC causes mitochondrial injury was investigated. Permeabilization of mitochondria, followed by cytochrome c release has previously been observed for transcriptional inhibitor flavopiridol. For this analysis, leukemia cell lines CEM, HL-60, NB4 and U937 were treated with either DMSO or ARC. […] It is well known that the Bcl2 family members (eg., Bcl-2, Bcl-XL, Mcl-1) protect the mitochondrial integrity, thereby acting in an anti-apoptotic manner. It is possible that ARC modulates the expression of one or more of these proteins to cause mitochondrial injury.

P-TEFb (Cdk9/Cyclin T1) = biological target: T1, P-TEFb (Cdk9/Cyclin T1) (Homo sapiens, UniProt P50750); assay: P-TEFb kinase assay with p53 as substrate; format: biochemical; settings: different concentrations, 30° C., 30 min
T1 construct: gift from Dr. Nekhai (Howard University)
T1 sequence (P50750 whole entry, species assumed): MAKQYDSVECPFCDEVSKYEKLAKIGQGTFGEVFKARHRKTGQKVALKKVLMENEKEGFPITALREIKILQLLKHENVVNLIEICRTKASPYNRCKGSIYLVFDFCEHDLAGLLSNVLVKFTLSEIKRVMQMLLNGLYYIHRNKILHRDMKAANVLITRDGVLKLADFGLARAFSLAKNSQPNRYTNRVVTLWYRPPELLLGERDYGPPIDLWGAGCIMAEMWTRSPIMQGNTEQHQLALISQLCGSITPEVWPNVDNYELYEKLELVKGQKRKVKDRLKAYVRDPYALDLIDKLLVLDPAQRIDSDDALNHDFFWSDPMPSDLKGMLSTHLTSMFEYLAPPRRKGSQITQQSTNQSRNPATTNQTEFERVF
T1 sequence (O60563 whole entry partner, species assumed): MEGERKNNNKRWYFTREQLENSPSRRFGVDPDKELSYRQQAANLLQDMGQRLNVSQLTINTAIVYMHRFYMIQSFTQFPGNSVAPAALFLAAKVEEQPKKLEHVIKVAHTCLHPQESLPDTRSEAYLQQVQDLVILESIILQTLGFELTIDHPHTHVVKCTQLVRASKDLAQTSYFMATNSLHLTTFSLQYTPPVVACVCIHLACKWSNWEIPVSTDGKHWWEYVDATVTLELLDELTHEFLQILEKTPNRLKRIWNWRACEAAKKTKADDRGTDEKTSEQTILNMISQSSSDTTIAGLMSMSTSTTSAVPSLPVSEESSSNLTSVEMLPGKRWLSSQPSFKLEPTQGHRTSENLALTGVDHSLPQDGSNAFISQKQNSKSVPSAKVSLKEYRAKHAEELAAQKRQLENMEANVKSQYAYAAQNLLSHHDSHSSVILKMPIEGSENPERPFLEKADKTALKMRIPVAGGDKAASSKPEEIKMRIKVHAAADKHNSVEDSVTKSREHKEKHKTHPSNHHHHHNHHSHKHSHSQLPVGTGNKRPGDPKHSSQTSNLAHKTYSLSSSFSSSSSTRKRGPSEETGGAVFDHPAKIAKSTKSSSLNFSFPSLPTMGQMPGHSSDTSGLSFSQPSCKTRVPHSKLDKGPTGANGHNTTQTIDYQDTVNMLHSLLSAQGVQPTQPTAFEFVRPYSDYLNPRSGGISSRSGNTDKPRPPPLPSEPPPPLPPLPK
Protocol: For P-TEFb kinase assays with p53 as a substrate, purified p53 protein (Protein One) was used. Twenty-five nanograms of p53 protein along with [γ^32P]ATP was used in reactions either in the presence or absence of P-TEFb, with or without the addition of ARC. The reaction was carried out at 30° C. for 30 min. The samples were resolved on an SDS-PAGE and transferred on to a PVDF membrane and exposed to X-ray film to detect phosphorylation of p53.
In order to evaluate this activity, an in vitro kinase assay was performed with purified p53 protein and P-TEFb in the presence of different concentrations of ARC.

[3] = tested on: RNA polymerase II transcription; assay: Nuclear run-on assay, nuclei from treated HCT-116 cells; format: cell-based, human; settings: HCT-116 cells treated 2 hours with 1 mM
Protocol: (§1) Run-on assays with isolated nuclei were performed as described. Briefly, cells treated with the indicated agents were lysed with hypotonic buffer (10 mM Tris-HCl pH 7.4, 10 mM NaCl and 35 mM MgCl2) and nuclei collected by centrifugation and resuspended in nuclear storage buffer (50 mM HEPES pH 8.0, 5 mM MgCl2, 0.5 mM DTT, 1 mg/ml BSA and 25% (v/v) glycerol) at about 5×10^8 nuclei/ml and stored at −80° C. Transcription reactions were performed in 200 μl volume consisting of 1×10^7 nuclei in the presence of 0.12 M KCl, 7 mM Mg(Ac)2, 25 μCi of [^32P]GTP, 500 μM ATP, UTP and CTP at 30° C. Samples were collected at various time points (18 μl/time point—0, 5, 10, 20 and 30 min) and the reaction terminated by the addition of 57 μl of Sarkosyl solution (1% Sarkosyl, 0.1 M Tris pH 8.0, 0.1 M NaCl, 10 mM EDTA and 200 μg/ml tRNA). The stopped reactions were transferred to Whatman DE81 paper, and washed four times with wash buffer (5% K2HPO4 and 0.3% Na4P2O7) for 10 min, followed by a 5-min water wash. Then the paper was briefly rinsed with 95% ethanol and allowed to dry completely. Radiation was quantitated using a liquid scintillation counter.
Some transcriptional inhibitors such as DRB and flavopiridol repress p21 and hdm2 while increasing p53 levels. […] To evaluate this activity, HCT-116 cells were treated with one of DMSO (control), ARC or DRB, and nuclei were isolated. These nuclei were assayed for rate of transcription either in the presence or absence of α-amanitin using the nuclear run-on assay. […] If ARC inhibits polymerase I and III transcription, the rate of transcription should be substantially lower in the ARC+α-amanitin (FIG. 2A; curve 5) when compared with DMSO+α-amanitin (FIG. 2A; curve 4). However both of these rates of transcription were similar, implying that ARC might preferentially affect only RNA polymerase II transcription.

RNA polymerase II = biological target: T2, RNA polymerase II (Homo sapiens, UniProt P24928); assay: Nuclear run-on assay, nuclei isolated from untreated HCT-116 cells then treated; format: biochemical; settings: 50 μM ARC, 50 μM DRB or 2 μg/ml α-amanitin
T2 construct: nuclei were isolated from normally growing untreated HCT-116 cells and treated with each of these agents; endogenous in cells; host or cells: nuclei of HCT-116 colon cancer cells
Protocol: as §1
In order to evaluate the ability of ARC to bind to and inhibit RNA polymerase II directly (like α-amanitin) or indirectly (like DRB), nuclei were isolated from normally growing untreated HCT-116 cells and treated with each of these agents, and then assayed for rate of transcription by nuclear run-on assay.

NNc1c(C(N)=O)c2c(N)ncnc2n1[C@@H]1O[C@H](CO)[C@@H](O)[C@H]1O [ARC, 4-amino-6-hydrazino-7-beta-D-ribofuranosyl-7H-pyrrolo[2,3-d]-pyrimidine-5-carboxamide]
apoptosis (DAPI staining) ([1]; 5 μM): around 50%
apoptosis (DAPI staining) ([1]; 10 μM): ~70%
cleaved caspase-3 [1]: appearance of cleaved caspase-3 was observed
survivin levels ([1]; wild type and SV40-transformed MRC-5 fibroblasts): further reduced
mitochondrial potential (TMRE) [2]: mitochondrial depolarization
phosphorylation of p53 by P-TEFb (P-TEFb (Cdk9/Cyclin T1)): decreased in a dose-dependent manner
rate of transcription versus control nuclei [3]: lower
rate of transcription in the presence of α-amanitin versus DMSO+α-amanitin ([3]; 2 μg/ml α-amanitin): similar
rate of transcription, agent added to isolated nuclei (RNA polymerase II): did not affect the rate of transcription
